In brackets after ≈: the same amount, converted by molar mass.
Key:
Assay in all cases: ≥ marks a high value that may be exact or a test limit, other limits are often not marked, values filed in µg/mL are converted to µM
Candida glabrata 090902 = system: Candida glabrata 090902
[1] = system: Pseudomonas aeruginosa CGMCC 1.50
[2] = system: Enterococcus faecalis 981
Nocardia asteroides = system: Nocardia asteroides
[3] = system: Staphylococcus aureus ATCC 25923
Escherichia coli = system: Escherichia coli
Cryptococcus neoformans = system: Cryptococcus neoformans
Saccharomyces cerevisiae = system: Saccharomyces cerevisiae
Pseudomonas putida = system: Pseudomonas putida
Serratia sp. = system: Serratia sp.
Bacillus subtilis = system: Bacillus subtilis
Staphylococcus aureus = system: Staphylococcus aureus
Salmonella typhimurium = system: Salmonella typhimurium
Candida albicans = system: Candida albicans
Streptococcus mutans = system: Streptococcus mutans
Micrococcus luteus = system: Micrococcus luteus
[4] = system: Pseudomonas aeruginosa ATCC 15692
[5] = system: Escherichia coli ATCC 25922
[6] = system: Candida albicans ATCC 2002
[7] = system: Pseudomonas aeruginosa ATCC 27853
[8] = system: Candida albicans ATCC 90028
Shigella dysenteriae = system: Shigella dysenteriae
[9] = system: Enterobacter cloacae ATCC 13047
Klebsiella pneumoniae = system: Klebsiella pneumoniae
[10] = system: Candida parapsilosis ATCC 22019
[11] = system: Pseudomonas aeruginosa CMCCB 1010
[12] = system: Enterococcus faecalis ATCC 29212
Staphylococcus aureus 10 = system: Staphylococcus aureus 10
[13] = system: Klebsiella pneumoniae ATCC 700603
Staphylococcus aureus 37 = system: Staphylococcus aureus 37
Escherichia coli IH3080 = system: Escherichia coli IH3080
Escherichia coli SM101 = system: Escherichia coli SM101
Escherichia coli SC9252 = system: Escherichia coli SC9252
Micrococcus luteus ML36 = system: Micrococcus luteus ML36
Escherichia coli SC9251 = system: Escherichia coli SC9251
Escherichia coli SC9253 = system: Escherichia coli SC9253

**Q.** With `CC[C@H](C)[C@H](NC(=O)[C@H](CC(C)C)NC(=O)CNC(=O)[C@@H](NC(=O)[C@@H](NC(=O)[C@@H](N)Cc1ccccc1)[C@@H](C)CC)[C@@H](C)O)C(=O)NCC(=O)NCC(=O)N[C@@H](CC(C)C)C(=O)N[C@@H](CCSC)C(=O)N[C@@H](CCCCN)C(=O)N[C@@H](C)C(=O)N[C@@H](CC(C)C)C(N)=O` [FITGLIGGLMKAL] as the compound, how does the MIC (Candida glabrata 090902) read?
**A.** ≥ 400 µM

**Q.** And the MIC [1]?
**A.** ≥ 400 µM

**Q.** What about the MIC [2] of the same compound?
**A.** ≥ 200 µM

**Q.** What about the MIC (Nocardia asteroides) of the same compound?
**A.** ≥ 100 µM

**Q.** And the MIC [3]?
**A.** 100 µM (≈ 133 µg/mL)

**Q.** Which results are given for `CC(C)C[C@H](NC(=O)[C@H](CCCN=C(N)N)NC(=O)[C@H](C)NC(=O)[C@H](CCCN=C(N)N)NC(=O)[C@H](CC(C)C)NC(=O)[C@H](CO)NC(=O)[C@H](CCC(=O)O)NC(=O)CNC(=O)[C@H](CCCCN)NC(=O)[C@H](CC(C)C)NC(=O)[C@H](CCCN=C(N)N)NC(=O)[C@H](CO)NC(=O)[C@@H](NC(=O)[C@H](CCCCN)NC(=O)[C@@H](NC(=O)[C@@H](NC(=O)CN)C(C)C)C(C)C)C(C)C)C(=O)O` [GVVKVSRLKGESLRARL]?
**A.** MIC (Escherichia coli): 5.35 µM (≈ 10 µg/mL); MIC (Cryptococcus neoformans): 3.21 µM (≈ 6 µg/mL); MIC (Saccharomyces cerevisiae): 3.21 µM (≈ 6 µg/mL); MIC (Pseudomonas putida): 5.35 µM (≈ 10 µg/mL); MIC (Serratia sp.): 10.7 µM (≈ 20 µg/mL); MIC (Bacillus subtilis): 3.21 µM (≈ 6 µg/mL); MIC (Staphylococcus aureus): 10.7 µM (≈ 20 µg/mL); MIC (Salmonella typhimurium): 5.35 µM (≈ 10 µg/mL); MIC (Candida albicans): 5.35 µM (≈ 10 µg/mL); MIC (Streptococcus mutans): 3.21 µM (≈ 6 µg/mL)

**Q.** How did the MIC (Saccharomyces cerevisiae) turn out when `CC[C@H](C)[C@H](NC(=O)[C@H](C)NC(=O)[C@H](CC(=O)O)NC(=O)[C@H](CC(C)C)NC(=O)CNC(=O)CNC(=O)[C@H](CCCCN)NC(=O)[C@H](C)NC(=O)[C@H](Cc1ccccc1)NC(=O)[C@H](CCCCN)NC(=O)[C@H](CCCCN)NC(=O)[C@H](CC(C)C)NC(=O)CNC(=O)CNC(=O)[C@H](CC(C)C)NC(=O)[C@@H](NC(=O)[C@@H](NC(=O)[C@H](CO)NC(=O)[C@H](Cc1c[nH]c2ccccc12)NC(=O)[C@@H](NC(=O)CN)C(C)C)[C@@H](C)O)[C@@H](C)CC)C(=O)N[C@H](C(=O)N[C@@H](CC(N)=O)C(=O)N1CCC[C@H]1C(=O)N[C@@H](CCCCN)C(=O)O)C(C)C` [GVWSTILGGLKKFAKGGLDAIVNPK] was run?
**A.** 8 µM (≈ 20.6 µg/mL)

**Q.** What about the MIC (Micrococcus luteus) of the same compound?
**A.** 0.5 µM (≈ 1.29 µg/mL)

**Q.** What about the MIC [4] of the same compound?
**A.** 16 µM (≈ 41.1 µg/mL)

**Q.** What about the MIC [5] of the same compound?
**A.** 2.83 µM (≈ 7.27 µg/mL)

**Q.** What about the MIC [3] of the same compound?
**A.** 11.3 µM (≈ 29.1 µg/mL)

**Q.** With `CC[C@H](C)[C@H](N)C(=O)N[C@@H](CC(N)=O)C(=O)N[C@@H](CC(C)C)C(=O)N[C@@H](CCCCN)C(=O)N[C@@H](C)C(=O)N[C@H](C(=O)N[C@H](C(=O)N[C@@H](C)C(=O)N[C@@H](CC(C)C)C(=O)N[C@@H](C)C(=O)N[C@@H](CCCCN)C(=O)N[C@@H](CCCCN)C(=O)N[C@@H](CC(C)C)C(=O)N[C@@H](CC(C)C)C(=O)O)[C@@H](C)O)[C@@H](C)CC` [INLKAITALAKKLL] as the compound, how does the MIC [6] read?
**A.** 3.31 µM (≈ 5 µg/mL)

**Q.** And the MIC [7]?
**A.** 53 µM (≈ 80 µg/mL)

**Q.** What about the MIC [8] of the same compound?
**A.** 6.62 µM (≈ 10 µg/mL)

**Q.** What about the MIC (Shigella dysenteriae) of the same compound?
**A.** 6.62 µM (≈ 10 µg/mL)

**Q.** What about the MIC [9] of the same compound?
**A.** 3.31 µM (≈ 5 µg/mL)

**Q.** What about the MIC (Klebsiella pneumoniae) of the same compound?
**A.** 13.2 µM (≈ 20 µg/mL)

**Q.** And the MIC [10]?
**A.** 1.66 µM (≈ 2.5 µg/mL)

**Q.** What about the MIC [11] of the same compound?
**A.** 6.62 µM (≈ 10 µg/mL)

**Q.** What about the MIC [12] of the same compound?
**A.** 3.31 µM (≈ 5 µg/mL)

**Q.** What about the MIC (Staphylococcus aureus 10) of the same compound?
**A.** 1.66 µM (≈ 2.5 µg/mL)

**Q.** And the MIC [13]?
**A.** 26.5 µM (≈ 40 µg/mL)

**Q.** And the MIC (Staphylococcus aureus 37)?
**A.** 3.31 µM (≈ 5 µg/mL)

**Q.** And the MIC [3]?
**A.** 6.62 µM (≈ 10 µg/mL)

**Q.** Which results are given for `NCCCC[C@H](NC(=O)[C@H](Cc1ccccc1)NC(=O)[C@H](Cc1ccccc1)NC(=O)[C@H](CCCCN)NC(=O)[C@H](Cc1ccccc1)NC(=O)[C@H](Cc1ccccc1)NC(=O)[C@@H](N)CCCCN)C(=O)N[C@@H](Cc1ccccc1)C(=O)N[C@@H](Cc1ccccc1)C(=O)O` [KFFKFFKFF]?
**A.** MIC (Escherichia coli IH3080): ≥ 77.8 µM; MIC (Escherichia coli SM101): 23.3 µM (≈ 30 µg/mL); MIC (Escherichia coli SC9252): 23.3 µM (≈ 30 µg/mL); MIC (Micrococcus luteus ML36): 7.78 µM (≈ 10 µg/mL); MIC (Escherichia coli SC9251): 23.3 µM (≈ 30 µg/mL); MIC (Escherichia coli SC9253): 23.3 µM (≈ 30 µg/mL)
